In US20110045568A1, “METHOD FOR RESTORING BMP-RECEPTOR SIGNALING IN A CELL” (FREIE UNIVERSITÄT BERLIN, priority 2008, published 2011):

Tests used:
[1] = test system: BMP response element (BRE from Id1 promoter) luciferase reporter; assay: BRE luciferase reporter gene assay in C2C12 cells; assay type: cell-based, mouse
Protocol: Luciferase activity was measured and error bars result from the mean of duplicate measurements. […] Expression of cGKIα/β was controlled by immunoblot using α-cGKI antibody. (C) As in (A and B) except that reporters were co-transfected with sh-cGKI, sh-cGKI mix and sh-control into C2C12 cells. BRE driven luciferase activity was measured and error bars represent deviation of the mean of duplicate measurements. […] Following cell extraction RNA was reverse transcribed into cDNA. The mRNA amount of Id1 was analyzed using Id1 specific primers including the control of applied cDNA by PCR using β-actin specific primers. The result is derived from a representative experiment. (F) As in (A and B), except that reporters were co-transfected with cGKIα and MYC-TFII-I into C2C12 cells. […] Lysates were pooled and immunoblotted for expression of cGKIα and TFII-I. (G) As in (E) except that mRNA amount of cGKI was analyzed using cGKI specific primers. The result is derived from an exemplary experiment. Results were quantified using ImageJ. cGKI mRNA expression was normalized relative to β-actin. […] Fold changes in BRE reporter activities were normalized to the non-treated empty vector control (mean±SD). […] The PDGF- or serum-induced proliferation was measured.
C2C12 cells were transfected with pBRE4-luc and pRL-TK and indicated constructs. […] Luciferase activity was measured according to manufacturer's instructions using the Dual-Luciferase® Reporter Assay System (Promega) and a FB12 or Mithras LB 940 luminometer (Berthold). Expression control was examined by immunoblotting.

Smad1/5/8 = assay: Smad phosphorylation assay in C2C12 cells; assay type: cell-based, mouse; conditions: without ligand, sh-cGKI versus sh-control
From the text: (§1) Whole cellular extracts were subjected to immunoblot using α-pSmad1/5/8 antibody. α-cGKIβ and α-β-actin immunoblotting was used as expression and loading control. To monitor the activity of cGKIβ the membrane was re-probed with α-pVASP antibody. Results were quantified using ImageJ and Smad1 C-terminal phosphorylation was normalized relative to β-actin. […] (C) Efficiency of cGKI knock down using a specific short hairpin-RNA (sh-cGKI) compared to a control (sh-control) was validated in C2C12 cells via immunoblot using α-cGKI antibody. Applied protein amount was controlled by α-β-tubulin antibody. (D) C2C12 cells were transfected with sh-cGKI and sh-control and subjected as in (A) to Smad phosphorylation assay. Smad1/5/8 phosphorylation and protein loading was monitored with α-pSmad1/5/8 and α-β-actin antibodies. Results were quantified using […]) and Smad1/5 C-terminal phosphorylation was normalized relative to β-actin.
(§2) Cell lysis and immunoblotting was performed as described in (Hartung et al., 2006).

[2] = target: T1, GST-BRII-tail (methionine 501 to leucine 1038) (UniProt Q13873)
T1 sequence: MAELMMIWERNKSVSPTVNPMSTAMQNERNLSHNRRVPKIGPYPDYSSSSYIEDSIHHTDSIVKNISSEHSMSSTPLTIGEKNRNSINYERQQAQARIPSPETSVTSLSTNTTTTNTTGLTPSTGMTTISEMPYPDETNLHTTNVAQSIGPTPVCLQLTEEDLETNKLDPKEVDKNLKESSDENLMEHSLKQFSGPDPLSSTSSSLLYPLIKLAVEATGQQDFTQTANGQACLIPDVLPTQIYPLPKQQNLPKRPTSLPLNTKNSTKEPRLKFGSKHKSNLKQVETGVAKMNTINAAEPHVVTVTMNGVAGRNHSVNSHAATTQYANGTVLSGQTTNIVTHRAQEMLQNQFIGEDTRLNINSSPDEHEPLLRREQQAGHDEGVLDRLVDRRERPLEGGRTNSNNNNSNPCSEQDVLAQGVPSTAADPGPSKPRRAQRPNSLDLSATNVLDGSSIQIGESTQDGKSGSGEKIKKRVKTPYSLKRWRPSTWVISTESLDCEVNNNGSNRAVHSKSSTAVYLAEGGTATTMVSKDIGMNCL

VASP = assay: Endogenous VASP phosphorylation in C2C12 cells (immunoblot); assay type: cell-based, mouse; conditions: 1 μmol/l 8-Br-cGMP
Protocol: Endogenous VASP phosphorylation in C2C12 cells was monitored in response to 1 μmol/l and 100 μmol/l 8-Br-cGMP stimulation. Lysates were analyzed using immunoblot α-pVASP and α-β-actin.

Id1 promoter = assay: Chromatin immunoprecipitation (ChIP) at the Id1 promoter in C2C12 cells; assay type: cell-based, mouse; conditions: co-stimulation with or stimulation with 8-Br-cGMP alone, 1 μmol/l, 4 hrs
Protocol: Chromatin immunoprecipitation (ChIP) was performed using (A) α-cGKI or α-Smad1 antibody or (B) α-Smad1 followed by α-cGKI antibody and vice versa or (C) α-Smad1 followed by α-TFII-I antibody and vice versa. Subsequent PCR identified a co-precipitated Id1 promoter sequence using specific primers. […] To exclude unspecific outcome control samples were run (for ChIP: no antibody, IgG, α-GFP antibody; for two-step ChIP: α-respective antibody followed by IgG; for unspecific amplification via PCR: no template). […] C2C12 cells were stimulated with BMP-2 for 4 h or left unstimulated. Endogenous chromatin immunoprecipitations (ChIP) of a specific Id1 promoter fragment was performed using α-Smad1 and α-cGKI antibodies (left). Id1 promoter was assayed for cGKI/TFII-I complex formation by one-step and two-step ChIP with the indicated antibodies. (D) Endogenous complexes with cGKI from C2C12 cells were analyzed with α-TFII-I, α-Smad1 and α-Smad4 antibodies and a lysate aliquot was monitored for protein expression. (E) Smad1/TFII-I association was analyzed in 293T cells expressing both proteins. IP was performed using a Smad1 directed antibody and the pellets were examined for co-IP of TFII-I. Lysate control was done by immunoblotting α-Smad1 and α-TFII-I.
Briefly, C2C12 cells were grown to a confluence of 80-90% (10 cm dish). […] PCR products were separated on 8% PA gels and analyzed under UV light.

cGKI = assay: Immunofluorescence microscopy of cGKI localization in C2C12 cells; assay type: cell-based, mouse; conditions: stimulation for 30 min
Protocol: (C) Immunofluorescence staining of cGKI in C2C12 cells after stimulation with BMP-2 or 8-Br-cGMP. DNA was stained using Hoechst dye.
Analysis was done with 63-fold magnification at a Leica DMR (Leica) confocal microscope. To examine the protein localization C2C12 cells or transfected 293T cells were starved for 3 hrs and either stimulated with 10 or 20 nmol/l BMP-2 and/or 1 mmol/18-Br-cGMP for 30 min or for 5 to 60 min or left untreated. Indirect immunofluorescence was performed as described in (Bengtsson and Wilson, 2006). Cells were analyzed using fluorescence microscopy (63-fold magnification, Axiovert 200M, Zeiss).

Smad1 = assay: Smad phosphorylation assay in transfected 293T cells; assay type: cell-based; conditions: 293T cells co-expressing Smad1, non-stimulated and BMP-2/8-Br-cGMP co-stimulated
From the text: as §1, §2

[3] = test system: human aortic smooth muscle cells; assay: PDGF- or serum-induced proliferation of human aortic smooth muscle cells expressing BMPRII mutant; assay type: cell-based; conditions: cells transfected with MYC-BMPRII-Q567ins16 with cGKI coexpression, 24 h
Protocol: (§3) Luciferase activity was measured and error bars result from the mean of duplicate measurements. […] Expression of cGKIα/β was controlled by immunoblot using α-cGKI antibody. (C) As in (A and B) except that reporters were co-transfected with sh-cGKI, sh-cGKI mix and sh-control into C2C12 cells. BRE driven luciferase activity was measured and error bars represent deviation of the mean of duplicate measurements. […] Luciferase activities are represented as mean of each value and standard deviations result from duplicate measurements. […] Following cell extraction RNA was reverse transcribed into cDNA. The mRNA amount of Id1 was analyzed using Id1 specific primers including the control of applied cDNA by PCR using β-actin specific primers. The result is derived from a representative experiment. (F) As in (A and B), except that reporters were co-transfected with cGKIα and MYC-TFII-I into C2C12 cells. BRE driven luciferase activity was measured, standard deviations result from duplicate measurements. […] Lysates were pooled and immunoblotted for expression of cGKIα and TFII-I. (G) As in (E) except that mRNA amount of cGKI was analyzed using cGKI specific primers. The result is derived from an exemplary experiment. Results were quantified using ImageJ. cGKI mRNA expression was normalized relative to β-actin. […] The PDGF- or serum-induced proliferation was measured. […]

HA-BRII-LF Q657ins16 = assay: BRE reporter assay with BRII PAH mutant in C2C12 cells; assay type: cell-based, mouse; conditions: C2C12 cells overexpressing cGKI and PAH mutant versus mutant alone
Protocol: as §3

Molecule: sh-cGKI: shRNA construct specific for mouse cGKI, SEQ ID NO 3 (CACCGGGACGATGTTTCTAACAAACGAATTTGTTAGAAACATCGTCC; listed as Homo sapiens)
- BRE reporter gene response upon ligand stimulation compared to control cells ([1]; C2C12 cells transfected with sh-cGKI versus sh-control, BMP-2 stimulated): less than 50%
- endogenous Smad1/5/8 phosphorylation (Smad1/5/8): reduced

Molecule: recombinant cGKIα (Promega)
- in vitro phosphorylation (γ-32P-ATP, autoradiography), cGKIα activated with 8-Br-cGMP [2]: BRII-tail was phoshorylated by activated cGKlα

Molecule: Nc1nc2c(nc(Br)n2[C@@H]2O[C@@H]3COP(=O)(O)O[C@H]3[C@H]2O)c(=O)[nH]1 [8-Br-cGMP]
- BRE reporter gene activity upon stimulation ([1]; C2C12 cells, endogenous cGKI, 1 nmol/l BMP-2 and/or 1 μmol/l or 100 μmol/l 8-Br-cGMP, 24 hrs): did not affect
- cGKI-mediated VASP phosphorylation (VASP): weak cGKI-mediated VASP phosphorylation
- effect on binding of Smad1 and cGKI to the Id1 promoter (Id1 promoter): did not affect
- nuclear translocation of endogenous cGKI (cGKI): redistribution of cGKI to the nucleus

B1: cGKIβ: β isoform of cGMP-dependent protein kinase I, SEQ ID NO 2 (protein, listed as Homo sapiens)
chain: MGTLRDLQYALQEKIEELRQRDALIDELELELDQKDELIQKLQNELDKYRSVIRPATQQAQKQSASTLQGEPRTKRQAISAEPTAFDIQDLSHVTLPFYPKSPQSKDLIKEAILDNDFMKNLELSQIQEIVDCMYPVEYGKDSCIIKEGDVGSLVYVMEDGKVEVTKEGVKLCTMGPGKVFGELAILYNCTRTATVKTLVNVKLWAIDRQCFQTIMMRTGLIKHTEYMEFLKSVPTFQSLPEEILSKLADVLEETHYENGEYIIRQGARGDTFFIISKGTVNVTREDSPSEDPVFLRTLGKGDWFGEKALQGEDVRTANVIAAEAVTCLVIDRDSFKHLIGGLDDVSNKAYEDAEAKAKYEAEAAFFANLKLSDFNIIDTLGVGGFGRVELVQLKSEESKTFAMKILKKRHIVDTRQQEHIRSEKQIMQGAHSDFIVRLYRTFKDSKYLYMLMEACLGGELWTILRDRGSFEDSTTRFYTACVVEAFAYLHSKGIIYRDLKPENLILDHRGYAKLVDFGFAKKIGFGKKTWTFCGTPEYVAPEIILNKGHDISADYWSLGILMYELLTGSPPFSGPDPMKTYNIILRGIDMIEFPKKIAKNAANLIKKLCRDNPSERLGNLKNGVKDIQKHKWFEGFNWEGLRKGTLTPPIIPSVASPTDTSNFDSFPEDNDEPPPDDNSGWDIDF
- C-terminal Smad1 phosphorylation (Smad1): resulted in phosphorylation of Smad1

B2: cGKI: cGMP-dependent protein kinase I (α or β isoform, SEQ ID NO 1 or 2), overexpressed in cells (protein, UniProt Q13976 2-671, looked up)
cGMP-dependent protein kinase …: SELEEDFAKILMLKEERIKELEKRLSEKEEEIQELKRKLHKCQSVLPVPSTHIGPRTTRAQGISAEPQTYRSFHDLRQAFRKFTKSERSKDLIKEAILDNDFMKNLELSQIQEIVDCMYPVEYGKDSCIIKEGDVGSLVYVMEDGKVEVTKEGVKLCTMGPGKVFGELAILYNCTRTATVKTLVNVKLWAIDRQCFQTIMMRTGLIKHTEYMEFLKSVPTFQSLPEEILSKLADVLEETHYENGEYIIRQGARGDTFFIISKGTVNVTREDSPSEDPVFLRTLGKGDWFGEKALQGEDVRTANVIAAEAVTCLVIDRDSFKHLIGGLDDVSNKAYEDAEAKAKYEAEAAFFANLKLSDFNIIDTLGVGGFGRVELVQLKSEESKTFAMKILKKRHIVDTRQQEHIRSEKQIMQGAHSDFIVRLYRTFKDSKYLYMLMEACLGGELWTILRDRGSFEDSTTRFYTACVVEAFAYLHSKGIIYRDLKPENLILDHRGYAKLVDFGFAKKIGFGKKTWTFCGTPEYVAPEIILNKGHDISADYWSLGILMYELLTGSPPFSGPDPMKTYNIILRGIDMIEFPKKIAKNAANLIKKLCRDNPSERLGNLKNGVKDIQKHKWFEGFNWEGLRKGTLTPPIIPSVASPTDTSNFDSFPEDNDEPPPDDNSGWDIDF
- PDGF- or serum-induced proliferation [3]: downregulated
- BRE reporter activity upon overexpression ([1]; transfected C2C12 cells, in the absence of BMP-2): increased
- BRE activity in cells expressing the PAH mutant BRII (HA-BRII-LF Q657ins16): rescues defective BMP signaling
